# Test results: ChEMBL document CHEMBL1148505, “Inhibition of Plasmodium falciparum fatty acid biosynthesis: evaluation of FabG, FabZ, and FabI as drug targets for flavonoids” (J Med Chem, 2006)
# Calls of active or inactive are those of the source. The calls are words filed in the database; no cut-off is given here.
# Target: T1, Fatty acid synthase (Plasmodium falciparum, UniProt Q965D7)
# T1 sequence (Q965D7 whole entry): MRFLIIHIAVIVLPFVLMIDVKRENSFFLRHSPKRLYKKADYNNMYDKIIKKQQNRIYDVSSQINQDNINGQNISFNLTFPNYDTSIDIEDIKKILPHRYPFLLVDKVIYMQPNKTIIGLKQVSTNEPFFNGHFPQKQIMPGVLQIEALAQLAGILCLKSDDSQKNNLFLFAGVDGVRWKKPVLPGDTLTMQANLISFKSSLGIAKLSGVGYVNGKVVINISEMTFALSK
# Assay: Inhibition of FabZ
Compound,IC50 [µM],Ki [µM]
O=c1c(O)c(-c2cc(O)c(O)c(O)c2)oc2cc(O)cc(O)c12 [MYRICETIN],2,–
O=c1cc(-c2ccc(O)c(O)c2)oc2cc(O)cc(O)c12 [LUTEOLIN],5,11.5
O=c1cc(-c2ccccc2)oc2cc(O)ccc12 [7-HYDROXYFLAVONE],20,–
O=C(O[C@@H]1Cc2c(O)cc(O)cc2O[C@H]1c1cc(O)c(O)c(O)c1)c1cc(O)c(O)c(O)c1 [GALLOCATECHIN GALLATE],0.6,–
COc1ccc(-c2coc3cc(O)cc(O)c3c2=O)cc1 [BIOCHANIN],8,–
O=C(O[C@@H]1Cc2c(O)cc(O)cc2O[C@@H]1c1cc(O)c(O)c(O)c1)c1cc(O)c(O)c(O)c1 [EPIGALOCATECHIN GALLATE],0.4,–

# Target: T2, Enoyl-acyl-carrier protein reductase (Plasmodium falciparum, UniProt Q965D5)
# T2 sequence (Q965D5 whole entry): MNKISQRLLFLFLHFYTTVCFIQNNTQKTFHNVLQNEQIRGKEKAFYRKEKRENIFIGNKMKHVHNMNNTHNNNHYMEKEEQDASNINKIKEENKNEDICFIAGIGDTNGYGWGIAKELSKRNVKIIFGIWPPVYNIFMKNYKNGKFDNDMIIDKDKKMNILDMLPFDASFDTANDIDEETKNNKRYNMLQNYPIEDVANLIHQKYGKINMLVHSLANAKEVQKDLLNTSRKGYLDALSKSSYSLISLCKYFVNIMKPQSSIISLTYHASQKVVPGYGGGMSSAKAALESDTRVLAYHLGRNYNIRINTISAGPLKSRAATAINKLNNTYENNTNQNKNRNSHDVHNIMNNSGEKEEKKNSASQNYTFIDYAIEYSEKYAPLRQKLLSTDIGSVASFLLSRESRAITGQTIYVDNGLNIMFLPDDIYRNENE
# Assay: Inhibition of FabI
Compound,IC50 [µM],Ki [µM]
O=c1c(O)c(-c2ccc(O)cc2)oc2cc(O)cc(O)c12 [KAEMPFEROL],20,–
O=c1c(O)c(-c2cc(O)c(O)c(O)c2)oc2cc(O)cc(O)c12 [MYRICETIN],0.4,–
"O=c1c(O)c(-c2ccccc2)oc2cc(O)ccc12 [3,7-DIHYDROXYFLAVONE]",10,–
O=c1cc(-c2ccc(O)c(O)c2)oc2cc(O)cc(O)c12 [LUTEOLIN],2,2.1
O=C(O[C@@H]1Cc2c(O)cc(O)cc2O[C@H]1c1cc(O)c(O)c(O)c1)c1cc(O)c(O)c(O)c1 [GALLOCATECHIN GALLATE],0.5,–
COc1cc(-c2oc3cc(O)cc(O)c3c(=O)c2O)ccc1O [ISORHAMNETIN],5,–
O=c1cc(-c2ccc(O)cc2)oc2cc(O)cc(O)c12 [APIGENIN],50,–
O=C(O[C@@H]1Cc2c(O)cc(O)cc2O[C@@H]1c1cc(O)c(O)c(O)c1)c1cc(O)c(O)c(O)c1 [EPIGALOCATECHIN GALLATE],0.2,–

# Target: T3, 3-oxoacyl-acyl-carrier protein reductase (Plasmodium falciparum, UniProt Q965D6)
# T3 sequence (Q965D6 whole entry): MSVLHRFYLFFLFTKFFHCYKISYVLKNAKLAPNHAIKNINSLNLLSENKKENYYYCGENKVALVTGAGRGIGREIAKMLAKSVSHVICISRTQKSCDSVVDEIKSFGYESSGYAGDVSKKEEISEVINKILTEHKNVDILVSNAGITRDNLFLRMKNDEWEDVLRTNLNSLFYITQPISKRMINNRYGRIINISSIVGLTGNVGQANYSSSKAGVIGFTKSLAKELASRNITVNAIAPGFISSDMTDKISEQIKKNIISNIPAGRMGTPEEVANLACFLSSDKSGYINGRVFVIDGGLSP
# Assay: Inhibition of FabG
row,Compound,IC50 [µM]
1,O=c1c(O)c(-c2ccc(O)cc2)oc2cc(O)cc(O)c12 [KAEMPFEROL],4
2,O=c1c(O)c(-c2cc(O)c(O)c(O)c2)oc2cc(O)cc(O)c12 [MYRICETIN],14
3,O=c1cc(-c2ccc(O)c(O)c2)oc2cc(O)cc(O)c12 [LUTEOLIN],4
4,COc1cc(-c2oc3cc(O)cc(O)c3c(=O)c2O)ccc1O [ISORHAMNETIN],8.3

# Tested on: Plasmodium falciparum
# Assay: Antiplasmodial activity against chloroquine-sensitive Plasmodium falciparum NF54
# Type: functional, organism-based
row,Compound,IC50 [µM]
1,O=c1c(O)c(-c2ccc(O)cc2)oc2cc(O)cc(O)c12 [KAEMPFEROL],30.4
2,O=c1c(O)c(-c2cc(O)c(O)c(O)c2)oc2cc(O)cc(O)c12 [MYRICETIN],57.3
3,"O=c1c(O)c(-c2ccccc2)oc2cc(O)ccc12 [3,7-DIHYDROXYFLAVONE]",49.2
4,O=c1cc(-c2ccc(O)c(O)c2)oc2cc(O)cc(O)c12 [LUTEOLIN],10.7
5,O=c1cc(-c2ccccc2)oc2cc(O)ccc12 [7-HYDROXYFLAVONE],65.5
6,O=C(O[C@@H]1Cc2c(O)cc(O)cc2O[C@H]1c1cc(O)c(O)c(O)c1)c1cc(O)c(O)c(O)c1 [GALLOCATECHIN GALLATE],40.1
7,COc1cc(-c2oc3cc(O)cc(O)c3c(=O)c2O)ccc1O [ISORHAMNETIN],14.7
8,COc1ccc(-c2coc3cc(O)cc(O)c3c2=O)cc1 [BIOCHANIN],34.3
9,O=c1cc(-c2ccc(O)cc2)oc2cc(O)cc(O)c12 [APIGENIN],17.4
10,O=C(O[C@@H]1Cc2c(O)cc(O)cc2O[C@@H]1c1cc(O)c(O)c(O)c1)c1cc(O)c(O)c(O)c1 [EPIGALOCATECHIN GALLATE],25.5

# Tested on: Plasmodium falciparum
# Assay: Antiplasmodial activity against chloroquine-resistant Plasmodium falciparum K1
# Type: functional, organism-based
row,Compound,IC50 [µM]
1,O=c1c(O)c(-c2cc(O)c(O)c(O)c2)oc2cc(O)cc(O)c12 [MYRICETIN],12.9
2,O=c1cc(-c2ccc(O)c(O)c2)oc2cc(O)cc(O)c12 [LUTEOLIN],9.6
3,O=C(O[C@@H]1Cc2c(O)cc(O)cc2O[C@H]1c1cc(O)c(O)c(O)c1)c1cc(O)c(O)c(O)c1 [GALLOCATECHIN GALLATE],6.2
4,O=C(O[C@@H]1Cc2c(O)cc(O)cc2O[C@@H]1c1cc(O)c(O)c(O)c1)c1cc(O)c(O)c(O)c1 [EPIGALOCATECHIN GALLATE],9.9

# Target: T4, Fatty acid synthase (Plasmodium falciparum) (UniProt Q965D7)
# T4 sequence (whole entry): T1 sequence (Q965D7 whole entry)
# Assay: Inhibition of FabZ at 100 uM
row,Compound,Activity
1,O=c1c(O)c(-c2ccc(O)cc2)oc2cc(O)cc(O)c12 [KAEMPFEROL],inactive
2,"O=c1c(O)c(-c2ccccc2)oc2cc(O)ccc12 [3,7-DIHYDROXYFLAVONE]",inactive
3,COc1cc(-c2oc3cc(O)cc(O)c3c(=O)c2O)ccc1O [ISORHAMNETIN],inactive
4,O=c1cc(-c2ccc(O)cc2)oc2cc(O)cc(O)c12 [APIGENIN],inactive

# Target: T5, Enoyl-acyl-carrier protein reductase (Plasmodium falciparum) (UniProt Q965D5)
# T5 sequence (whole entry): T2 sequence (Q965D5 whole entry)
# Assay: Inhibition of FabI at 100 uM
row,Compound,Activity
1,O=c1cc(-c2ccccc2)oc2cc(O)ccc12 [7-HYDROXYFLAVONE],inactive
2,COc1ccc(-c2coc3cc(O)cc(O)c3c2=O)cc1 [BIOCHANIN],inactive

# Target: T6, 3-oxoacyl-acyl-carrier protein reductase (Plasmodium falciparum) (UniProt Q965D6)
# T6 sequence (whole entry): T3 sequence (Q965D6 whole entry)
# Assay: Inhibition of FabG at 100 uM
row,Compound,Activity
1,"O=c1c(O)c(-c2ccccc2)oc2cc(O)ccc12 [3,7-DIHYDROXYFLAVONE]",inactive
2,O=c1cc(-c2ccccc2)oc2cc(O)ccc12 [7-HYDROXYFLAVONE],inactive
3,COc1ccc(-c2coc3cc(O)cc(O)c3c2=O)cc1 [BIOCHANIN],inactive
4,O=c1cc(-c2ccc(O)cc2)oc2cc(O)cc(O)c12 [APIGENIN],inactive

# Target: T3, 3-oxoacyl-acyl-carrier protein reductase
# Assay: Inhibition of FabG in presence of acetoacetyl-CoA
row,Compound,Ki [µM]
1,O=c1cc(-c2ccc(O)c(O)c2)oc2cc(O)cc(O)c12 [LUTEOLIN],1.8

# Target: T3, 3-oxoacyl-acyl-carrier protein reductase
# Assay: Inhibition of FabG in presence of NADPH
row,Compound,Ki [µM]
1,O=c1cc(-c2ccc(O)c(O)c2)oc2cc(O)cc(O)c12 [LUTEOLIN],0.8
